Data on 10 molecules can be found in patent US20260327225A1, “HETEROCYCLIC COMPOUNDS AS TRIGGERING RECEPTOR EXPRESSED ON MYELOID CELLS 2 AGONISTS AND METHODS OF USE” (VIGIL NEUROSCIENCE, INC., priority 2023, published 2026).

The target of the test is T1, human TREM2 (Homo sapiens, UniProt Q9NZC2).
T1 construct: expressed in transfected cells; host or cells: HEK293T-hTREM2 cells (HEK cell line expressing human TREM2 and DAP12)
As to the kind of experiment: TREM2 agonist potency by cellular phosphorylation of Syk (AlphaLisa) in HEK293T-hTREM2 cells expressing human TREM2 and DAP12. Format: cell-based. The note with it: HEK293 cells expressing hTREM2 and DAP12; 45 minutes at room temperature; Syk phosphorylation, AlphaLisa; read-out: hTREM2 EC50. As to the method: In vitro Measurement of Triggering Receptor Expressed on Myeloid Cells 2 activity using cellular phosphorylation of Spleen Tyrosine Kinase (“Syk”) Assays
Measurement of TREM2 agonist potency was done using a HEK cell line expressing human TREM2 and DAP12 (HEK293T-hTREM2 cells). Binding of small molecules to, and activation of, TREM2 increases the phosphorylation of Syk. The resultant levels of Syk phosphorylation are measured using a commercial AlphaLisa reagent kit. To perform the assay, HEK-hTREM2 cells were plated at 14,000 cells per well in a 384 well plate, in 25 μL of complete growth media and incubated at 37° C., 5% CO2 for 20-24 hours.
Prior to the assay, test compounds were diluted in the 384 well plates in assay buffer and allowed to equilibrate for 30 minutes. Growth media was removed from cell plates by inversion on blotting paper, and 25 μL of test articles in assay buffer was added to cells. Cells were incubated for 45 minutes at room temperature. After 45 minutes, assay buffer was removed and 10 μL of lysis buffer was added. Plates were shaken for 20 minutes at 350 RPM at room temperature. After complete lysis, AlphaLisa reagents were added to the lysate, and fluourescence intensity was measured using a Perkin Elmer Envision plate reader. Intensities were used to generate a standard curve, and % activation was calculated. Curve fitting was performed using Prism v9 software, log(agonist) vs response—variable slope (four parameters), and EC50s were calculated from the curve fit.
The results presented in Table B have been generated with the in vitro assay described above. This assay may be used to test any of the compounds described herein to assess and characterize a compound's ability to act as an agonist of TREM2.

Some results are limits rather than exact numbers.

T1 sequence (Q9NZC2 19-230): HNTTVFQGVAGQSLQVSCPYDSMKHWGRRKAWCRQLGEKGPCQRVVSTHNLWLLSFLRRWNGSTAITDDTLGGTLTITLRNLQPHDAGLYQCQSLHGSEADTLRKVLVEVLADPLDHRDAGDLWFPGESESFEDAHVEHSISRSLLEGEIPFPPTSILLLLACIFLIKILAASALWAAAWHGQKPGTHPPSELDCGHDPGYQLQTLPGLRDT
T1 sequence (O43914 22-113 partner): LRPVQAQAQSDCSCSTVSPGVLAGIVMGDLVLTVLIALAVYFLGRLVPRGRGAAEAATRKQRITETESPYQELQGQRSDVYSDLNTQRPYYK

On to `Cc1nnc(-c2cc3c(-c4ccc(F)cc4F)nc(N4C[C@@H](C)O[C@@H](c5cnn(C6CC6)c5)C4)nc3nc2C)o1` [Example 12, (2S,6R)-2-(1-cyclopropylpyrazol-4-yl)-4-[4-(2,4-difluorophenyl)-7-methyl-6-(5-methyl-1,3,4-oxadiazol-2-yl)pyrido[2,3-d]pyrimidin-2-yl]-6-methyl-morpholine], for which the concentration giving a half-maximal response (EC50) was less than 100 nM.
As for `Cc1cnc(-c2cc3c(-c4ccc(F)cc4F)nc(N4C[C@@H](C)O[C@@H](c5cnn(C6CC6)c5)C4)nc3nc2C)o1` [Example 13, (2S,6R)-2-(1-cyclopropylpyrazol-4-yl)-4-[4-(2,4-difluorophenyl)-7-methyl-6-(5-methyloxazol-2-yl)pyrido[2,3-d]pyrimidin-2-yl]-6-methyl-morpholine], the EC50 is less than 100 nM.
As for `Cc1noc(-c2cc3c(-c4ccc(F)cc4F)nc(N4CCCC(N5CCOCC5)C4)nc3nc2C)n1` (stereo not shown) [Example 15, 4-[1-[4-(2,4-difluorophenyl)-7-methyl-6-(3-methyl-1,2,4-oxadiazol-5-yl)pyrido[2,3-d]pyrimidin-2-yl]-3-piperidyl]morpholine], the concentration giving a half-maximal response (EC50) is more than 500 nM.
Then `Cc1nc2nc([C@H]3CCO[C@@H](c4cnn(C5CC5)c4)C3)nc(-c3ccc(F)cc3F)c2cc1C#N` [Example 18, 2-[(2R,4S)-2-(1-cyclopropylpyrazol-4-yl)tetrahydropyran-4-yl]-4-(2,4-difluorophenyl)-7-methyl-pyrido[2,3-d]pyrimidine-6-carbonitrile], with less than 100 nM.
As to `Cc1nc2nc(N3C[C@@H](C)O[C@@H](c4cnn(C5CC5)c4)C3)nc(-c3ccc(F)cc3F)c2cc1C#N` [Example 21, 2-[(2S,6R)-2-(1-cyclopropylpyrazol-4-yl)-6-methyl-morpholin-4-yl]-4-(2,4-difluorophenyl)-7-methyl-pyrido[2,3-d]pyrimidine-6-carbonitrile], the EC50 was less than 100 nM.
Then `Cc1noc(-c2cc3c(C45CC(C(F)(F)F)(C4)C5)nc(N4C[C@@H](C)O[C@@H](c5cnn(C6CC6)c5)C4)nc3nc2C)n1` [Example 22, (2S,6R)-2-(1-cyclopropyl-pyrazol-4-yl)-6-methyl-4-[7-methyl-6-(3-methyl-1,2,4-oxadiazol-5-yl)-4-[3-(trifluoromethyl)-1-bicyclo[1.1.1]pentanyl]-pyrido[2,3-d]pyrimidin-2-yl]morpholine], with less than 100 nM; and `Cc1nnc(-c2cc3c(C45CC(C(F)(F)F)(C4)C5)nc([C@H]4CCO[C@@H](c5cnn(C6CC6)c5)C4)nc3nc2C)o1` [Example 23, 2-(2-((2R,4S)-2-(1-cyclopropyl-1H-pyrazol-4-yl)tetrahydro-2H-pyran-4-yl)-7-methyl-4-(3-(trifluoromethyl)bicyclo[1.1.1]pentan-1-yl)pyrido[2,3-d]pyrimidin-6-yl)-5-methyl-1,3,4-oxadiazole], with less than 100 nM; and `Cc1nc2nc([C@H]3CCO[C@@H](c4cnn(C5CC5)c4)C3)nc(C34CC(C(F)(F)F)(C3)C4)c2cc1F` [Example 24, 2-[(2R,4S)-2-(1-cyclopropylpyrazol-4-yl)tetrahydropyran-4-yl]-6-fluoro-7-methyl-4-[3-(trifluoromethyl)-1-bicyclo[1.1.1]pentanyl]-pyrido[2,3-d]pyrimidine], with less than 100 nM.
Take `Cc1nc2nc(N3C[C@@H](C)O[C@@H](c4cnn(C5CC5)c4)C3)nc(C34CC(C(F)(F)F)(C3)C4)c2cc1C#N` [Example 25, 2-[(2S,6R)-2-(1-cyclopropylpyrazol-4-yl)-6-methyl-morpholin-4-yl]-7-methyl-4-[3-(trifluoromethyl)-1-bicyclo[1.1.1]pentanyl]pyrido[2,3-d]pyrimidine-6-carbonitrile]: the concentration giving a half-maximal response (EC50) is less than 100 nM.
On to `Cc1nc2nc([C@H]3CCO[C@@H](c4cnn(C5CC5)c4)C3)nc(C34CC(C(F)(F)F)(C3)C4)c2cc1-c1cnn(C)c1` [Example 26, 2-((2R,4S)-2-(1-cyclopropyl-1H-pyrazol-4-yl)tetrahydro-2H-pyran-4-yl)-7-methyl-6-(1-methyl-1H-pyrazol-4-yl)-4-(3-(trifluoromethyl)bicyclo[1.1.1]pentan-1-yl)pyrido[2,3-d]pyrimidine], for which the concentration giving a half-maximal response (EC50) is less than 100 nM.
